Patent publication US11679096B1, “Composition and method of treatment of elevated ApoE gene expression related health issues” (priority 2022, dated 2023)

What was measured:
[1] = test system: ApoE gene transcripts in Alzheimer disease (AD) fibroblasts; assay: Effects of individual components on ApoE gene transcription in AD fibroblasts (young and old donors, not separated); assay type: cell-based, human; conditions: 1 ug/ml, overnight
[2] = test system: ApoE gene transcripts in NHDF; assay: ApoE gene transcription (RT-PCR) in normal human dermal fibroblasts; assay type: cell-based; conditions: overnight
[3] = test system: ApoE gene transcripts in AD fibroblasts (AG08629); assay: ApoE gene transcription (RT-PCR) in fibroblasts from old Alzheimer's disease donor; assay type: cell-based, human; conditions: with IL1b, Mix 1 at 1 mcg/ml, Basic Mix 1 ug/ml, estradiol 5 nM
Procedure: (§1) ApoE and iNOS determination: Fibroblasts from Alzheimer disease (AD) […] (AG07887), and […] (AG08629) and/or Normal Human fibroblasts (NHDF) and/or lung cancer cell line A549 were grown on DMEM/F12 without phenol red (Gibco, USA). Media was supplemented with charcoal stripped, sterile-filtered 10% fetal bovine serum (Sigma-Millipore, USA Origen), and 1% penicillin-streptomycin.
(§2) Cells were separated and splatted in 2 cm cell culture dishes and subjected to none or treated with IL-1βat 15 pg/ml, in the presence of Basic Mix (1 μg/ml), Mix 1-1 (1 μg/ml), Mix 1-2 (2 μg/ml), genistein (1 μg/ml), and estrogen E2 (5 nM) as indicated in each experiment. Treated cells were incubated for two hours or overnight followed by RNA isolation and purification for RT-PCR analysis.
(§3) Total RNA was obtained by standard method RNeasy* Plus, (Qiagen, Germany) lysing cells with RLT Plus buffer according to the manufacturer's instructions. Equal amount of RNA extracted from each treated lysate was reverse transcribed in 20 microliters reactions with RT-QuantiTech kit (Qiagen, Germany). […] Amplification in 40 cycles and Ct quantification was carried out in CFX-Connect PCR-system from BioRad. Relative expression of the target gene data was analyzed using delta Ct method and compared to delta Ct of expression of a reference gene. […]

[4] = test system: ApoE gene transcripts in lung cancer cell line A549; assay: ApoE gene transcription (RT-PCR) in lung cancer cells with IL-1β; assay type: cell-based, human; conditions: A549, IL-1 15 pg/ml; Mix 1 4 μg/ml, estrogen 5 nM, genistein 1 μg/ml
Procedure: as §1, §2, §3

[5] = test system: iNOS gene transcripts in lung cancer cell line A549; assay: iNOS expression (RT-PCR) in lung cancer cells with IL-1β; assay type: cell-based, human
Procedure: as §1, §2, §3

[6] = test system: ApoE gene transcripts in AD fibroblasts (AG07887); assay: ApoE gene transcription (RT-PCR) in fibroblasts from young Alzheimer's disease donor; assay type: cell-based, human; conditions: with IL1b, Mix 1 at 1 mcg/ml, estradiol 5 nM
Procedure: as §1, §2, §3

[7] = test system: MCF7 estrogen-dependent breast cancer cells; assay: In vitro MCF7 cells proliferation (E-SCREEN) assay, MTT; assay type: cell-based, human; conditions: β-17-estradiol 0.5 μg/ml, 6 days
Procedure: In vitro MCF7 cells proliferation (E-SCREEN) assay: MCF-7 cells (1×10^3 cells/well of a 96-well plate) were cultured with different micronutrients and plant extracts (0.5-5 μg/ml) with added β-17-estradiol (0.5 μg/ml) for 6 days at 37° C. Thereafter, medium in each well, including control wells, was replaced with 150 μl of tetrazolium MTT (3-(4, 5-dimethylthiazolyl-2)-2,5-diphenyltetrazolium bromide) ([…]). Wells that received DMSO only were used as negative control whereas that cells that receive only β-17-estradiol were use as positive control. Next, cells were incubated for 3 h at 37° C., the supernatant with MTT was removed, and the adherent cells were rinsed with PBS. Next, 150 μl of isopropanol was added to each well and the absorbance was measured at 570 nm using the microplate reader. Percentage of MTT reduction by metabolically active cell to purple formazan (reflecting cell proliferation rate) was calculated as following equation: Proliferation rate=[(ODsample-ODcontrol)/ODcontrol].
We used MCF7 cancer cells which are epithelial cells isolated from the breast tissue of a patient with metastatic adenocarcinoma and depend on estrogen to proliferate. […]

[8] = pro-inflammatory conditions (IL1b 15 pg/ml)
[9] = normal conditions (without IL1β)
[10] = pro-inflammatory condition (with IL1β)

Which “effect of individual compounds on ApoE transcript” value [1, 8] does the source give for O=c1c(-c2ccc(O)cc2)coc2cc(O)ccc12 [Daidzein] here?
Its value is “ApoE increasing effects”.

How did the “effect on ApoE expression” value [2, 9] turn out when Cc1c(C)c2c(c(C)c1O)CC[C@@](C)(CCC[C@H](C)CCC[C@H](C)CCCC(C)C)O2 [Vitamin E, D-alpha-tocopherol] was run?
Its value is “moderate lowering effect”.

What does the source list for C[C@]12CC[C@@H]3c4ccc(O)cc4CC[C@H]3[C@@H]1CC[C@@H]2O [estrogen, β-17-estradiol]?
decrease of ApoE transcript compared to no treatment control [3]: about 3 times; effect on ApoE transcripts in human lung cancer cells [4]: inhibitory effect; increase of iNOS expression over control ([5]; A549, IL-1 15 pg/ml, estrogen 5 nM): more than 20 times; decrease of ApoE transcription [6]: equal to control; MCF7 proliferation rate, higher compared to normal control [7]: about 1.2 folds

For O=c1c(-c2ccc(O)cc2)coc2cc(O)cc(O)c12 [genistein], which “effect of individual compounds on ApoE transcript” value [1, 8] is on record?
Its value is “slight ApoE lowering effect”.

And the “effect on ApoE transcripts in human lung cancer cells” value [4]?
The value was “inhibitory effect”.

What about the “lowering of iNOS transcript” value ([5]; A549, pro-inflammatory conditions (IL1b), 1 mcg/ml) of the same compound?
The value was “comparable”.

Which “effect on ApoE expression” value [2, 10] does the source give for O[C@H]1[C@H](O)[C@@H](O)[C@H](O)[C@@H](O)[C@H]1O [inositol, Inositol] here?
The value was “comparable”.

What does the source list for O=c1c(O)c(-c2ccc(O)c(O)c2)oc2cc(O)cc(O)c12 [quercetin]?
effect of individual compounds on ApoE transcript ([1]; normal conditions (without IL1b)): lowering effect; effect of individual compounds on ApoE transcript [1, 8]: ApoE increasing effects

CC(C)(CO)[C@@H](O)C(=O)NCCC(=O)O [vitamin B5, Pantothenic acid] was tested. Which “effect on ApoE expression” value [2, 9] did it give?
Its value is “moderate lowering effect”.

phosphatidyl choline was tested. Which “effect on ApoE expression” value [2, 10] did it give?
Its value is “comparable”.
